Where “and” joins values, the source holds several entries; their conditions need not be identical. Equal entries are not always repeated.

What is called IC50 is the point on the concentration scale where inhibition reaches its midpoint.

T1 sequence (Q02293 whole entry, one chain of several): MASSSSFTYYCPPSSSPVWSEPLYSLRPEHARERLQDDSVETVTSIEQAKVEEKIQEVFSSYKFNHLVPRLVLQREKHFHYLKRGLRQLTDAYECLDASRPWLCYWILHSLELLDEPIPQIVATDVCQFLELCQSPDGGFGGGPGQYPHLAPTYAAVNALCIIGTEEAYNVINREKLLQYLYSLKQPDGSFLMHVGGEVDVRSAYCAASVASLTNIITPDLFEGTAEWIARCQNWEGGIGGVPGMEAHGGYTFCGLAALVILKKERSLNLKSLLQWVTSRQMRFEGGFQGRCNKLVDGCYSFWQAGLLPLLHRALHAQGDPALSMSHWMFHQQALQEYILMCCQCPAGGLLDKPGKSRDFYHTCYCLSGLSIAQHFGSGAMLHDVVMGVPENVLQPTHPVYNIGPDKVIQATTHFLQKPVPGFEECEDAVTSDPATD

One experiment concerns the target T1, farnesyl protein transferase (FPT), partially purified from rat brain (Rattus norvegicus, UniProt Q02293+Q04631).
T1 construct: were partially purified from rat brain by ammonium sulfate fractionation followed by Q-Sepharose
As to the kind of experiment: Inhibition of farnesyl protein transferase (transfer of [3H]farnesyl to Ras-CVLS). The experiment is classed as biochemical. The settings on record: Ras-CVLS farnesylation, partially purified rat brain FPT; read-out: FPT IC50. On the procedure:
1. In vitro enzyme assays: Inhibition of farnesyl protein transferase and geranylgeranyl protein transferase.
Human farnesyl protein transferase was also expressed in E. coli, using cDNA clones encoding both the α and β subunits. […] Human farnesyl protein transferase was partially-purified from the soluble protein fraction of E. coli as described above. […] Two forms of val^12-Ha-Ras protein were prepared as substrates for these enzymes, differing in their carboxy terminal sequence. One form terminated in cysteine-valine-leucine-serine (Ras-CVLS) the other in cystein-valine-leucine-leucine (Ras-CVLL). Ras-CVLS is a substrate for the farnesyl protein transferase while Ras-CVLL is a substrate for geranylgeranyl protein transferase I. The cDNAs encoding these proteins were constructed so that the proteins contain an amino-terminal extension of 6 histidine residues. Both proteins were expressed in Escherichia coli and purified using metal chelate affinity chromatography. The radiolabelled isoprenyl pyrophosphate substrates, [^3H]farnesyl pyrophosphate and [3H]geranylgeranyl pyrophosphate, were purchased from DuPont/New England Nuclear.
The reaction was allowed to proceed for 30 minutes at room temperature and then stopped with 0.5 ml of 4% sodium dodecyl sulfate (SDS) followed by 0.5 ml of cold 30% trichloracetic acid (TCA). Samples were allowed to sit on ice for 45 minutes and precipitated Ras protein was then collected on GF/C filter paper mats using a Brandel cell harvester. […] Percent inhibition was calculated relative to the DMSO vehicle control.
For the molecule `O=C(Cc1c(O)cccc1O)N1CCC(=C2c3ccc(Cl)cc3CCc3cccnc32)CC1` [Example 125], the IC50 worked out at 10.3 µM. Regarding `CC(=O)N1CCC(=C2c3ccc(Cl)cc3CCc3c(Cl)ccnc32)CC1` [Example 135], the IC50 was 7.7 µM. Consider `COc1ccnc2c1CCc1cc(Cl)ccc1C2=C1CCN(C(C)=O)CC1` [Example 136], for which the IC50 came to 11.5 µM.

As for `CC(=O)N1CCC(=C2c3ccccc3CCc3c2[nH]c2ccccc32)CC1` [Example 140], the IC50 worked out at 15.7 µM. For `CC(=O)N1CCC(=C2c3ccncc3CCc3cc(Cl)ccc32)CC1` [Example 143], the IC50 was determined as 35.4 µM. `COCC(=O)N1CCC(=C2c3ccc(F)cc3CCc3cccnc32)CC1` [Example 145]: the IC50 was more than 10 µM.

For the molecule `CC(=O)N1CCN(C2c3ccc(Cl)cc3CCc3cccnc32)CC1C` (stereo not shown) [Example 149], the IC50 was found to be 10.8 µM. Take `O=C(c1cc[n+]([O-])cc1)N1CCC(=C2c3ccccc3CCc3ccccc32)CC1` [Example 151]: the IC50 was found to be 15 µM.

Turning to `O=C(c1ccc(=O)[nH]c1)N1CCC(=C2c3ccccc3CCc3ccccc32)CC1` [Example 152], the IC50 was 15 µM. For the molecule `CC(=O)N1CCN(C2c3ccccc3CCc3ccccc32)CC1` [Example 153], the IC50 stood at 29.6 µM. Consider `CC(C)(C)OC(=O)N1CCC(CC(=O)N2CCN(C3c4ccc(Cl)cc4CCc4cccnc43)CC2)CC1` (stereo not shown) [Example 193], for which the IC50 is 7.4 µM. As to `CC(=O)N1CCCC(C(=O)N2CCN(C3c4ccc(Cl)cc4CCc4cccnc43)CC2)C1` (stereo not shown) [Example 194], the IC50 came out at 4.3 µM. As to `CN1CCCC(C(=O)N2CCN(C3c4ccc(Cl)cc4CCc4cccnc43)CC2)C1` (stereo not shown) [Example 195], the IC50 was 6.8 µM. On the same count and under the same terms, for `CC(=O)N1CCCC(CC(=O)N2CCN(C3c4ccc(Cl)cc4CCc4cccnc43)CC2)C1` (stereo not shown) [Example 205] the value was 3.1 µM; for `O=C(Cc1ccc(O)cc1)NCC(=O)N1CCN(C2c3ccc(Cl)cc3CCc3cccnc32)CC1` (stereo not shown) [Example 210], 7.93 µM. `O=C(Cc1csc2ccccc12)N1CCC(=C2c3ccc(Cl)cc3CCc3cccnc32)CC1` [Example 221]: the IC50 came out at 3.71 µM. The same measure, in the same setting: for `O=C(Cc1ccncc1)N1CCC(=C2c3ccc(Cl)cc3CCc3ccc[n+]([O-])c32)CC1` [Example 230] the value was 2.06 µM; for `O=C(Cc1cc[n+]([O-])cc1)N1CCC(=C2c3ccc(Cl)cc3CCc3ccc[n+]([O-])c32)CC1` [Example 232], 6 µM; for `O=C(Cc1cccnc1)N1CCC(=C2c3ccc(Cl)cc3CCc3cc(O)cnc32)CC1` [Example 240], 3.12 µM. As to `O=C(Cc1cccnc1)N1CCC(=C2c3ccc(Cl)cc3CCc3c(O)ccnc32)CC1` [Example 252], the IC50 stood at 7.2 µM. Take `O=C(Cc1cccnc1)N1CCC(=C2c3ccc(Cl)cc3CCc3c2ncc(Br)c3O)CC1` [Example 253]: the IC50 was determined as 4.3 µM. Consider `C[S+]([O-])c1ccnc2c1CCc1cc(Cl)ccc1C2=C1CCN(C(=O)Cc2cccnc2)CC1` (stereo not shown) [Example 256], for which the IC50 was determined as 4.9 µM. Still for that read-out and setting: for `COC(=O)CSc1ccnc2c1CCc1cc(Cl)ccc1C2=C1CCN(C(=O)Cc2cccnc2)CC1` [Example 257] the value was 2.3 µM; for `O=C(Cc1cccnc1)N1CCC(=C2c3ccc(Cl)cc3CCc3c(SCc4ccccc4)ccnc32)CC1` [Example 258], 10.8 µM. The same measure, in the same setting: in the case of `Cn1nnnc1Sc1ccnc2c1CCc1cc(Cl)ccc1C2=C1CCN(C(=O)Cc2cccnc2)CC1` [Example 259] it was 2.2 µM; in that of `O=C(Nc1cccnc1)N1CCC(=C2c3ccc(Cl)cc3CCc3c(On4nnc5ccccc54)ccnc32)CC1` [Example 262], 0.82 µM. With `O=C(Nc1cccnc1)N1CCC(=C2c3ccc(Cl)cc3CCc3c(O)ccnc32)CC1` [Example 263], the IC50 stood at 9.8 µM.

As for `CC(C)(C(=O)N1CCC(C2c3ccc(Cl)cc3C=Cc3cccnc32)CC1)c1cccnc1` (stereo not shown) [Example 268], the IC50 turned out to be 1.22 µM. For the molecule `O=C(Cc1cccnc1)N1CCC(C2c3ccc(Cl)cc3C=Cc3c(Cl)ccnc32)CC1` (stereo not shown) [Example 273], the IC50 was 0.84 µM.

Take `O=C(Nc1cccnc1)N1CCC(=C2c3ccc(Cl)cc3C=Cc3cccnc32)CC1` [Example 277]: the IC50 worked out at 2.3 µM.

In the case of `O=C1Cc2cc(Cl)ccc2C(=C2CCN(C(=O)Cc3cccnc3)CC2)c2ncccc21` [Example 279], the IC50 stood at 7.7 µM. Consider `O=C(Cc1cccnc1)N1CCC(=C2c3ccc(Cl)cc3CC(O)c3cccnc32)CC1` (stereo not shown) [Example 280], for which the IC50 amounted to 23 µM. Take `O=C(Cc1ccncc1)N1CCC(=C2c3ccc(Cl)cc3CC(O)c3cccnc32)CC1` (stereo not shown) [Example 282]: the IC50 was determined as 4.5 µM.

For the molecule `O=C(Cc1cccnc1)N1CCC(=C2c3ccc(Cl)cc3C(O)Cc3cccnc32)CC1` (stereo not shown) [Example 284], the IC50 was found to be 4.3 µM. As for `O=C(C(=O)N1CCC(=C2c3ccc(Cl)cc3CCc3cccnc32)CC1)c1ccccc1` [Example 296], the IC50 was 4.1 µM. As to `CC(C)(C(=O)N1CCC(=C2c3ccc(Cl)cc3CCc3cccnc32)CC1)c1ccncc1` [Example 299], the IC50 is 1.34 µM. For the molecule `O=C(Cc1cccnc1)N1CCC(=C2c3ccccc3CCc3cccnc32)CC1` [Example 323], the IC50 amounted to 4.9 µM. On the same count and under the same terms, for `O=C(Cc1ccncc1)N1CCC(=C2c3ccc(Cl)cc3CCc3c2ncc(Br)c3Cl)CC1` [Example 356] the value was 0.062 µM and 0.073 µM. Consider `CC(C)(C(=O)N1CCC(=C2c3ccc(Cl)cc3CCc3cc(Br)cnc32)CC1)c1ccc[n+]([O-])c1` [Example 360], for which the IC50 was 0.59 µM.

The experiment is the same for the next values; noted with them: at 10 μM.
For the molecule `O=C(N[C@@H](Cc1ccccc1)C(=O)N1CCN(C2c3ccc(Cl)cc3CCc3cccnc32)CC1)OCc1ccccc1` (stereo partly shown) [Example 213], the FPT inhibition was found to be 23% @. `CC(C)(C)OC(=O)N[C@@H](Cc1ccccc1)C(=O)N1CCN(C2c3ccc(Cl)cc3CCc3cccnc32)CC1` (stereo partly shown) [Example 214] yielded an FPT inhibition of 0% @. Still for that read-out and setting: for `O=C([C@H](Cc1ccccc1)N1C(=O)c2ccccc2C1=O)N1CCN(C2c3ccc(Cl)cc3CCc3cccnc32)CC1` (stereo partly shown) [Example 216] the value was 34% @.

Still in this experiment, the particulars now being: at 11 μM.
Turning to `CC(C)(C)OC(=O)N1CCC(C(=O)N2CCN(C3c4ccc(Cl)cc4CCc4cccnc43)CC2)CC1` (stereo not shown) [Example 202], the FPT inhibition worked out at 20% @.

Still in this experiment, the particulars now being: at 11.8 μM.
For `O=C(Cc1c[nH]c2ccccc12)N1CCC(=C2c3ccc(Cl)cc3CCc3cccnc32)CC1` [Example 129], the FPT inhibition came to 32% at 11.8 μM.

The same experiment, now with this note: at 12 μM.
`O=C(c1cc[n+]([O-])cc1)N1CCC(=C2c3ccccc3CCc3cc(Cl)ccc32)CC1` [Example 146] had an FPT inhibition of 45% at 12 μM. `O=C(NCC(=O)N1CCN(C2c3ccc(Cl)cc3CCc3cccnc32)CC1)OCc1ccccc1` (stereo not shown) [Example 207]: the FPT inhibition came out at 40% @.

Staying with this experiment, now noted: at 12.1 μM.
`CC(=O)N1CCC(=C2c3ccc(Cl)cc3CCc3ccc[n+](C)c32)CC1` [Example 130] showed an FPT inhibition of 7% at 12.1 μM.

Still in this experiment, the particulars now being: at 12.6 μM.
As to `O=C1CCC(C(=O)N2CCC(=C3c4ccc(Cl)cc4CCc4cccnc43)CC2)N1` (stereo not shown) [Example 123], the FPT inhibition is 23% at 12.6 μM.

The experiment is the same for the next values; noted with them: at 12.8 μM.
As for `Cc1cc(C(=O)N2CCC(=C3c4ccc(Cl)cc4CCc4cccnc43)CC2)cc(Cl)n1` [Example 124], the FPT inhibition is recorded as 37% at 12.8 μM.

Staying with this experiment, now noted: at 13 μM.
Turning to `NC(Cc1ccccc1)C(=O)N1CCN(C2c3ccc(Cl)cc3CCc3cccnc32)CC1` (stereo not shown) [Example 215], the FPT inhibition was 30% @.

Still in this experiment, the particulars now being: at 13.4 μM.
For `O=C(c1cc[n+]([O-])cc1)N1CCC(=C2c3ccc(Cl)cc3CCc3ccc[n+]([O-])c32)CC1` [Example 131], the FPT inhibition was 16% at 13.4 μM.

The experiment is the same for the next values; noted with them: at 14.1 μM.
With `CC(=O)N1CCC(=C2c3ccc(Cl)cc3CCc3cc(C(C)(C)C)c[n+]([O-])c32)CC1` [Example 133], the FPT inhibition came to 16% at 14.1 μM.

Still in this experiment, the particulars now being: at 15 μM.
As to `CC(=O)N1CCC(=C2c3ccc(Cl)cc3CCc3c(C)cc[n+]([O-])c32)CC1` [Example 132], the FPT inhibition is recorded as 22% at 15 μM.

Still in this experiment, the particulars now being: at 15.2 μM.
Molecule `CC(=O)c1cnc2c(c1)CCc1cc(Cl)ccc1C2=C1CCN(C(C)=O)CC1` [Example 139] showed an FPT inhibition of 37% at 15.2 μM.

Still in this experiment, the particulars now being: at 16.3 μM.
Turning to `CC(=O)N1CCC(=C2c3ccc(Cl)cc3CC(C)c3cccnc32)CC1` (stereo not shown) [Example 137], the FPT inhibition came out at 15% at 16.3 μM.

Staying with this experiment, now noted: at 16.9 μM.
As for `CC(=O)N1CCC(C2c3ccc(Cl)cc3CCc3cccnc32)CC1` (stereo not shown) [Example 150], the FPT inhibition was 38% at 16.9 μM.

The same experiment, now with this note: at 18.8 μM.
For `CC(=O)N1CCC(=C2c3ccccc3CCc3cccnc32)CC1` [Example 147], the FPT inhibition was found to be 0% at 18.8 μM.

Staying with this experiment, now noted: at 39 μM.
As to `Cc1ccc(S(=O)(=O)NC(=O)N2CCC(=C3c4ccc(Cl)cc4CCc4cccnc43)CC2)cc1` [Example 120], the FPT inhibition was 4% at 39 μM.

Still in this experiment, the particulars now being: at 46 μM.
`O=C(c1cc[n+]([O-])cc1)N1CCC(=C2c3ccncc3CCc3cc(Cl)ccc32)CC1` [Example 144a] had an FPT inhibition of 47% at 46 μM.

Staying with this experiment, now noted: at 50 μM.
Consider `CC(=O)N1CCC(C2c3cc4ccccc4cc3CCc3ccc[n+]([O-])c32)CC1` (stereo not shown) [Example 141], for which the FPT inhibition worked out at 29% at 50 μM. `CC(=O)N1CCC(=C2c3ccc(Cl)cc3CCc3ncccc32)CC1` [Example 144] showed an FPT inhibition of 30% at 50 μM.

The record behind these values is patent US20030055065A1, “Tricyclic amide and urea compounds useful for inhibition of G-protein function and for treatment of proliferative diseases” (priority 1993, published 2003).
